From EP1459757A1, “Immunomodulating polymers” (THE BRIGHAM AND WOMEN'S HOSPITAL, INC., priority 1999, dated 2004)

Tests used:
B. fragilis NCTC 9343 = assay: Rat model of intraabdominal sepsis, abscess formation after B. fragilis challenge; assay type: in vivo
Method: The rat model of intraabdominal sepsis used in this study has been described previously. […] Briefly, male Wistar or Lewis rats (Charles River Laboratories, Wilmington, MA) weighing between 180 and 200 g were housed separately and received chow (Ralston Purina, St. Louis, MO) and water ad libitum. Animals were anesthetized with a single intraperitoneal injection of 0.15 ml of Nembutal (50 mg/ml; Abbott Laboratories, North Chicago, IL), and their abdomens were shaved and swabbed with a tincture of iodine. An anterior midline incision (0.5-1.0 cm) was made through the abdominal wall and peritoneum, and a gelatin capsule containing 0.5 ml of inoculum was inserted into the pelvis. The inoculum contained either B. fragilis NCTC 9343 (10^8 cfu/animal), S. aureus PS 80 (10^7 cfu/animal), or purified test polysaccharide, mixed 1:1 with an adjuvant solution containing sterile rat cecal contents and 10% barium sulfate (w/v) as previously described. […] The incisions were closed with interrupted 3.0 silk sutures, and the animals were returned to the cages.
Six days later animals were necropsied in a blinded fashion and examined for the formation of one or more intraabdominal abscesses by an observer blinded to the experimental groups.
This example addresses whether zwitterionic (K-D)n peptides could protect animals against abscess formation in vivo, using the abdominal sepsis model in Example 1.
The effect of the peptide repeating unit size on protection was examined. Animals were treated according to the regimen described above with a 50 µg/dose of each repeating unit size (Table 2).

human T cells = assay: T cell proliferation assay (3H-thymidine uptake); assay type: cell-based; conditions: 20 µg/ml; 6 days post-incubation (Figure 6)
Method: T cell proliferation assays were performed on cells obtained from human leukopacs (discarded white cells from anonymous platelet donors). Mononuclear cells were separated by ficoll-hypaque sedimentation to eliminate red cells and polymorphonuclear leukocytes. The mononuclear layer, which consisted of T cells, B cells, and mononuclear cells, was depleted of B cells and monocytes by passage over nylon wool column. A portion of these cells was saved prior to placement on nylon wool and were used as autologous feeder cells following irradiation with 6.4 kRads with a cesium source for 4.8 min. Nylon passed cells, which were greater than 98% CD3 positive (as determined by FACS analysis) were used as responder cells or further depleted with antibodies to CD4 (OKT4) or CD8 (OKT8) followed by negative selection with magnetic beads. Finberg, RW et al. J Immunol 149:2055 (1992); Haregewoin, A et al. Nature 340:309 (1989). […] Cells were washed extensively, harvested, and the amount of radioactive uptake counted by liquid scintillation. […] Data were expressed as the average of triplicate wells ± the standard error of cpm represented. […]
Following the T cell proliferation assay of Example 2, K-D peptides (20 µg/ml) of varying size were assessed for their ability to stimulate T cell activation 6 days post-incubation. […]

[1] = Table 1 Experiment A, 50 µg subcutaneous at -24, 0, +24 h, B. fragilis 1 x 10^8 cfu/rat, six days later

In the case of poly-L-lysine, the “protection against abscess formation compared with saline-treated animals” value (B. fragilis NCTC 9343; 50 µg/dose subcutaneous, B. fragilis challenge) is reported as “did not protect against abscess formation”, the “Abscess formation (%)” value (B. fragilis NCTC 9343; [1]) is reported as 80% and the “No. animals with abscess/total” value (B. fragilis NCTC 9343; [1]) is reported as 8/10. The “T cell activation by K-D peptides of varying size” value (human T cells) was “did not stimulate T cell proliferation”.
